Measurements as given in patent US20140031227A1, “HERBICIDAL COMPOSITIONS COMPRISING 4-AMINO-3-CHLORO-5-FLUORO-6-(4-CHLORO-2-FLUORO-3-METHOXYPHENYL) PYRIDINE-2-CARBOXYLIC ACID OR A DERIVATIVE THEREOF AND GLYPHOSATE OR GLUFOSINATE” (DOW AGROSCIENCES LLC, priority 2012, published 2014).

Test system: SCPMA (Schoenoplectus maritimus (L.) Lye or Bolboschoenus maritimus (L.) Palla, sea clubrush)
Experiment: Example II in-water applied mixtures, transplanted paddy rice weeds, greenhouse: SCPMA
Format: in vivo
Settings: Compound A Acid alone
Protocol: Weed seeds or nutlets of the desired test plant species were planted in puddled soil (mud) prepared by mixing a shredded, non-sterilized mineral soil (50.5 percent silt, 25.5 percent clay, and 24 percent sand, with a pH of about 7.6 and an organic matter content of about 2.9 percent) and water at a 1:1 volumetric ratio. The prepared mud was dispensed in 365 mL aliquots into 16-ounce (oz.) non-perforated plastic pots with a surface area of 86.59 square centimeters (cm^2) leaving a headspace of 3 centimeters (cm) in each pot. Mud was allowed to dry overnight prior to planting or transplanting. Rice seeds were planted in Sun Gro MetroMix® 306 planting mixture, which typically has a pH of 6.0 to 6.8 and an organic matter content of about 30 percent, in plastic plug trays. Seedlings at the second or third leaf stage of growth were transplanted into 840 mL of mud contained in 32-oz. non-perforated plastic pots with a surface area of 86.59 cm^2 4 days prior to herbicide application. The paddy was created by filling the headspace of the pots with 2.5 to 3 cm of water. […] The plants were grown for 4-22 days in a greenhouse with an approximate 14 hr photoperiod which was maintained at about 29′C during the day and 26° C. during the night. Nutrients were added as Osmocote® (19:6:12, N:P:K+minor nutrients) at 2 g per 16-oz. pot and 4 g per 32-oz. pot. Water was added on a regular basis to maintain the paddy flood, and supplemental lighting was provided with overhead metal halide 1000-Watt lamps as necessary. The plants were employed for testing when they reached the first through fourth true leaf stage.
Treatments consisted of the acid or esters of 4-amino-3-chloro-5-fluoro-6-(4-chloro-2-fluoro-3-methoxy-phenyl)pyridine-2-carboxylic acid (compound A) each formulated as an SC (suspension concentrate) and various herbicidal components alone and in combination. Forms of compound A were applied on an acid equivalent basis.
For formulated compounds, a measured amount was placed in an individual 100 or 200 mL glass vial and was dissolved in a volume of 1.25% (v/v) Agri-Dex® crop oil concentrate to obtain application solutions.
Applications were made by injecting with a pipetter appropriate amounts of the application solutions, individually and sequentially, into the aqueous layer of the paddy. Control plants were treated in the same manner with the solvent blank. Applications were made so that all treated plant material received the same concentrations of acetone and crop oil concentrate.
The treated plants and control plants were placed in a greenhouse as described above and water was added as needed to maintain a paddy flood. After approximately 3 weeks the condition of the test plants as compared with that of the untreated plants was determined visually and scored on a scale of 0 to 100 percent where 0 corresponds to no injury or growth inhibition and 100 corresponds to complete kill.
Colby's equation was used to determine the herbicidal effects expected from the mixtures (Colby, S. R. 1967. Calculation of the synergistic and antagonistic response of herbicide combinations. Weeds 15:20-22.).

Measured: Visual Weed Control (%) - 21 DAA SCPMA Obs

COc1c(Cl)ccc(-c2nc(C(=O)O)c(Cl)c(N)c2F)c1F [Compound A Acid, 4-amino-3-chloro-6-(4-chloro-2-fluoro-3-methoxyphenyl)-5-fluoropyridine-2-carboxylic acid]
0%: 8.75 gae/ha | 17.5 gae/ha | 35 gae/ha
